According to patent US6706686B2, “Inhibition of histone deacetylase as a treatment for cardiac hypertrophy” (The Regents of the University of Colorado, priority 2001, dated 2004):
Entries after “also recorded” stand apart in the source; their conditions may differ.

What was measured:
ANF locus / NRSE = conditions: prior data; cited from earlier work
cardiomyocytes [1] = assay: Protein synthesis (tritiated leucine, S6 ribosomal protein); type: cell-based, rat
Experimental: FIG. 6. The effects of TSA treatment on the reorganization of the sarcomeres and protein synthesis. […] The graphs on the right show the content of S6 ribosome protein in cardiomyocytes after 24 hours co-treatment with PE and increasing concentrations of TSA or with serum and increasing concentrations of TSA.
Protein synthesis. Cardiomyocytes were incubated with (1.0 μCi/ml; 172 Ci/mmol sp. activity) tritiated-leucine (ICN Biochemicals, Inc., Irvine, Calif.) in treated RPMI media (Invitrogen, Carlsbad, Calif.). After 6 hrs incubation, the cells were washed twice with 1× PBS, then incubated in 10% TCA on ice for 30 min. Afterwards, the cells were washed twice with 5% TCA, once with water, and then lysed in […]. Lysates were measured in one-sixth volume of scintillation fluid by a scintillation counter (Beckman, Fullerton, Calif.).
S6 Ribosomal protocol. After blocking, cells were incubated in 1% BSA/1× PBS containing 50 μg/ml anti-S6 protein (Cell Signaling, […]) for 1 hr. After washing, the cells were incubated with IgG-HRP (Jackson Labs, […]) at a 1:400 dilution. The cells were then washed twice in 1% BSA/1× PBS, in 1× PBS, then blotted dry. Luminol (Pierce, Rockford, Ill.) was added and the chemiluminescence was detected in a Fusion reader (Perkin-Elmer/Packard).

mouse model = conditions: Takahashi et al, 1996; cited from earlier work
[2] = system: ANF promoter in neonatal rat cardiomyocytes; assay: ANF promoter transcription (luciferase) assay; type: cell-based
Experimental: (§1) FIGS. 3A-D. HDAC inhibitors block the activation of ANF reporter by phenylphrine without cytotoxicity. Neonatal rat cardiomyocytes were co-transfected with a total of 1 μg of the mouse 3 kb ANF promoter fragment and CMV-Lac Z plasmids. (FIG. 3A) The ANF promoter is minimally active in unstimulated cardiomyocytes. […] (FIG. 3B) Lac Z expression by the constitutive promoter CMV. Treatment with HDAC inhibitors augmented CMV activity with and without phenylephrine co-treatment. (FIGS. 3C and 3D) The graphs show the measurements of adenylate kinase activity remains constant in the medium after […] of culturing cardiomyocytes in the absence or presence of hypertrophic stimulants FBS, PE or ET-1.
Cardiomyocyte isolation. Hearts were harvested from 15-day timed-pregnant female Sprague-Dawley rats (Harlan, Houston, Tex.). After mincing in phosphate-buffered saline, cardiomyocytes were isolated from successive digestion fractions of 0.1% (w/v) Pancreatin (Sigma, St. Louis, Mo.) solution. Fractions were collected; resuspended in plating medium, pooled; and then plated for 2 hours to separate fibroblasts from cardiomyocyte population. Suspended cells were recollected and plated in 6-well dishes at 1×10^6 cells/well for transfection and immunofluorescence experiments, and 2×10^6 cells in 10 cm dishes for RNA analysis.
(§2) Transcription assay. Twenty-four hours after plating, cells were transfected with total of 1 μg/ml for 5 hrs using Lipofectamine Plus reagent (Invitrogen, Carlsbad, Calif.). Transfected cells were incubated 24 hrs then treated for an additional 24 hrs. Cells were lysed and their lysates assayed with the Luciferase Assay System (Promega, Madison, Wis.) for luminescence using Lucysoft 2 luminometer (Rosys Anthos, New Castle, Del.).

cardiomyocytes [3] = assay: Immunostaining for ANF protein and α-actinin (sarcomere); type: cell-based, rat
Experimental: Immunostaining. Glass coverslips were coated with laminin (Invitrogen, Carlsbad, Calif.) by solublizing laminin in 1× PBS (40 μg/ml), by dipping the coverslips in the solution and by allowing them to air-dry. Cells were treated for 24 hrs, washed, fixed 10 min. with 3.7% formaldehyde, washed with 1× PBS and permeabolized with 1× PBS containing 3% BSA and 0.1% NP-40 (Sigma, St. Louis, Mo.). Primary Antibodies were in 1× PBS containing 3% BSA and 0.1% NP-40 for 30 min, then washed three times in 1× PBS. The secondary FITC or TRITC antibodies (Vector Laboratories, Inc., Burlingame, Calif.) were incubated (1:200) in same buffer solution as the primary antibodies, then washed in 1× PBS, covered and subsequently visualized. Images were captured using a digital camera (Hamamatsu Photonics, Hamamatsu City, Japan).

[4] = system: ANF, αSK-actin, αMyHC, βMyHC RNA in cardiomyocytes; assay: RNA dot blot of fetal gene program; type: cell-based, rat
Experimental: FIGS. 5A-B. Treatment of cardiomyocytes with HDAC inhibitors blocks the fetal gene program associated with cardiomyocyte hypertrophy. […] The graphs represent three or more independent experiments.
Dot Blot analysis. Total RNA was isolated from cardiomyocytes that were either untreated, treated with phenylephrine, treated with TSA, or co-treated with phenylephrine and TSA. One microgram of RNA was blotted onto Nitrocellulose (Bio-Rad, Hercules, Calif.) and hybridized at 50° C. for 14 hrs with end-labeled oligos. (ANF, 5′-[…]-3, SEQ ID NO 1; αSK actin5′-[…]-3′, SEQ ID NO2; αMyHC,5′[…]-3′, SEQ ID NO 3; βMyHC5′-[…]-3′, SEQ ID NO 4; GAPDH5′-[…]-3′, SEQ ID NO 5). The blots were washed twice in 2×SSC/0.5% SDS solution and exposed to film (Kodak, Rochester, N.Y.) or phosphoimager (Amersham Bioscience, Sunnyvale, Calif.). The intensity of the hybridization of the probes was measured using ImageQuant® (Amersham Bioscience, Sunnyvale, Calif.).

[5] = system: CMV-Lac Z reporter in neonatal rat cardiomyocytes; assay: CMV-Lac Z reporter (specificity control); type: cell-based; conditions: inhibitor alone or together with phenylephrine
Experimental: as §1, §2

## CC(/C=C/C(=O)NO)=C\[C@@H](C)C(=O)c1ccc(N(C)C)cc1 [TSA, Trichostatin A]
ANF locus / NRSE
  ANF expression at low dose: can induce the ANF expression
Cardiomyocytes [1]; 6 hours co-culture with phenylephrine
  phenylephrine-stimulated protein synthesis, 6 hours: had little effect on the stimulation of protein synthesis; also recorded: does not alter this increase
Cardiomyocytes [1]; 24 hrs co-treatment
  protein synthesis induced by PE or serum, 24 hrs: antagonized the protein synthesis normally induced by PE or serum in a dose-dependent manner
Mouse model
  immunosuppression: induces immunsuppression
[2]; phenylephrine 100 μM, TSA 85 nM, NaBut 5 mM, HC-toxin 5 ng/ml
  activation of ANF promoter by phenylephrine: did block the promoter's activation by phenylephrine treatment completely; also recorded: prevented the activation of the ANF promoter
[2]; unstimulated cardiomyocytes
  ANF promoter activity, inhibitor alone: did not activate the ANF promoter
Cardiomyocytes [3]; 24 hrs
  ANF protein accumulation, inhibitor alone: lacked accumulation of ANF protein
Cardiomyocytes [3]; TSA alone
  cell size: did not change size
  organization of the sarcomere (α-actinin), inhibitor alone: lacked organization of the sarcomere
Cardiomyocytes [3]; phenylephrine, serum or ET-1
  organization of the sarcomere with growth stimulants: lacked fully organized sarcomeres
Cardiomyocytes [3]; with phenylephrine or serum
  ANF protein accumulation induced by phenylephrine or serum: dramatically reduced ANF protein accumulation
[4]; TSA treatment
  αMyHC expression: induced the expression of αMyHC; also recorded: stimulated the expression of αMyHC
[4]; phenylephrine 100 μM, TSA 85 nM, sodium butyrate 5 mM, HC-toxin 5 ng/ml
  phenylephrine-induced endogenous ANF RNA expression: prevented the phenylephrine-induced ANF response; also recorded: blocks the accumulation of ANF message
[4]; phenylephrine co-treatment
  phenylephrine-induced αSK-actin expression: suppression of other genes activated by the hypertrophic stimulant; also recorded: lack of gene activation
  phenylephrine-induced βMyHC expression: down-regulating the fetal myosin chain isoform; also recorded: prevented the activation of βMyHC
[5]
  transcriptional activity of CMV-Lac Z reporter: increased the transcriptional activity of the CMV-Lac Z reporter
